Measured values: ChEMBL document CHEMBL1142667, “Modulation of MRP-1-mediated multidrug resistance by indomethacin analogues” (J Med Chem, 2005)
Activity calls are given as the source filed them. The rule behind the calls is not given here.

The compounds below were run on T98G (assay: Effect of compound (10 uM) on doxorubicin-induced cytotoxicity towards T98G cell line expressing multidrug resistance associated protein 1 (MRP-1); Active). Details: Homo sapiens.
Assay type: functional, cell-based
`O=C(c1ccccn1)n1c2c(c3cc(S(=O)(=O)O)ccc31)CCCC2` was tested, and the Effect was “Active”. With `COc1ccc2c(c1)c(CCC(=O)O)c(C)n2C(=O)c1ccc(N(C)C)cc1` the Effect was “Active”. With `Cc1c(CCCC(=O)O)c2cc(C(=O)O)ccc2n1C(=O)c1ccc(Cl)cc1` the Effect was “Active”. `COc1ccc2c(c1)c(CC(=O)O)c(C)n2C(=O)c1ccc(F)cc1` was tested, and the Effect was “Active”. With `O=C(c1ccc(-c2ccccc2)cc1)n1c2c(c3cc(S(=O)(=O)O)ccc31)CSCC2` the Effect was “Active”. With `Cc1c(Cc2ccc(O)cc2)c2cc(S(=O)(=O)O)ccc2n1C(=O)c1ccc(Cl)cc1` the Effect was “Active”. With `COc1ccc2c(c1)c(CCCC(=O)O)c(C)n2C(=O)c1cccs1` the Effect was “Active”. For `O=C(c1ccccn1)n1c2c(c3cc(S(=O)(=O)O)ccc31)CSCC2`, the Effect was “Active”. With `COc1ccc2c(c1)c(CC(=O)O)c(C)n2C(=O)c1ccc(N(C)C)cc1` the Effect was “Active”. In the case of `O=C(c1ccccc1)N1CCc2c(c3cc(S(=O)(=O)O)ccc3n2C(=O)c2ccc(-c3ccccc3)cc2)C1`, the Effect was “Active”. In the case of `COc1ccc2c(c1)c(CC(=O)O)c(C)n2C(=O)c1ccc(-c2ccccc2)cc1`, the Effect was “Active”. `COc1ccc2c(c1)c(CCCC(=O)O)c(C)n2C(=O)c1ccc(N(C)C)cc1` was tested, and the Effect was “Active”. `COc1ccc2c(c1)c(CC(=O)O)c(C)n2C(=O)c1ccc(Cl)cc1` was tested, and the Effect was “Active”. In the case of `COc1ccc2c(c1)c(CC(=O)O)c(C)n2C(=O)c1cccs1`, the Effect was “Active”. With `CCOC(=O)CCCc1c(C)n(C(=O)c2ccc(N(C)C)cc2)c2ccc(OC)cc12` the Effect was “Active”. With `O=C(c1ccccc1)N1CCc2c(c3cc(S(=O)(=O)O)ccc3n2C(=O)c2ccc(Cl)cc2)C1` the Effect was “Active”. `O=C(c1ccc(-c2ccccc2)cc1)n1c2c(c3cc(S(=O)(=O)O)ccc31)CCCC2` was tested, and the Effect was “Active”. For `CCCCCCCCCCc1c(C)n(C(=O)c2ccc(Cl)cc2)c2ccc(C(=O)O)cc12`, the Effect was “Active”. In the case of `COc1ccc2c(c1)c(CC(=O)O)c(C)n2C(=O)c1ccc(C)cc1`, the Effect was “Active”. With `COc1ccc2c(c1)c(CCCC(=O)O)c(C)n2C(=O)c1ccccn1` the Effect was “Active”.

Each compound was assayed on T98G (assay: Effect of compound (10 uM) on doxorubicin-induced cytotoxicity towards T98G cell line expressing multidrug resistance associated protein 1 (MRP-1); Very active). Details: Homo sapiens.
Assay type: functional, cell-based
`COc1ccc2c(c1)c(CC(=O)O)c(C)n2C(=O)c1ccc(Br)cc1` was tested, and the Effect was “Active”. For `O=C(O)c1ccc2c(c1)c1c(n2C(=O)c2ccc(Cl)cc2)CCCC1`, the Effect was “Active”. `O=C(O)c1ccc2c(c1)c1c(n2C(=O)c2ccc(Cl)cc2)CCSC1` was tested, and the Effect was “Active”. In the case of `COc1ccc2c(c1)c(CCCC(=O)O)c(C)n2C(=O)c1ccc(Cl)cc1`, the Effect was “Active”. `Cc1ccc2c(c1)c(CCCC(=O)O)c(C)n2C(=O)c1ccc(Cl)cc1` was tested, and the Effect was “Active”. `COc1ccc2c(c1)c(CCC(=O)O)c(C)n2C(=O)c1ccc(Cl)cc1` was tested, and the Effect was “Active”. With `Cc1ccc2c(c1)c(CCC(=O)O)c(C)n2C(=O)c1ccc(Cl)cc1` the Effect was “Active”. With `COc1ccc2c(c1)c(CCCC(=O)O)c(C)n2C(=O)c1ccc(Br)cc1` the Effect was “Active”. With `COc1ccc2c(c1)c(CCC(=O)O)c(C)n2C(=O)c1ccc(Br)cc1` the Effect was “Active”.

Each compound was assayed on T98G (assay: Effect of compound (10 uM) on doxorubicin-induced cytotoxicity towards T98G cell line expressing multidrug resistance associated protein 1 (MRP-1); Inactive). Details: Homo sapiens.
Assay type: functional, cell-based
In the case of `CCc1c(C)n(C(=O)c2ccco2)c2ccc(S(=O)(=O)O)cc12`, the Effect was “inactive”. `COc1ccc2c(c1)c(CC(=O)O)c(C)n2C(=O)c1ccccn1` was tested, and the Effect was “inactive”. `COc1ccc2c(c1)c(CCC(=O)O)c(C)n2C(=O)c1ccccn1` was tested, and the Effect was “inactive”. With `Cc1c(Cc2ccc(O)cc2)c2cc(S(=O)(=O)O)ccc2n1C(=O)c1ccc(-c2ccccc2)cc1` the Effect was “inactive”. With `O=C(c1ccc(Cl)cc1)n1c2c(c3cc(S(=O)(=O)O)ccc31)CCCCCC2` the Effect was “inactive”. For `COC(=O)CCCc1c(C)n(C(=O)c2ccco2)c2ccc(S(=O)(=O)O)cc12`, the Effect was “inactive”. `CCc1c(C)n(C(=O)c2ccc(Cl)cc2)c2ccc(S(=O)(=O)O)cc12` was tested, and the Effect was “inactive”. `CCCCCCCCCCc1c(C)n(C(=O)c2ccc(Cl)cc2)c2ccc(S(=O)(=O)O)cc12` was tested, and the Effect was “inactive”. For `Cc1c(CC(=O)O)c2cc(Br)ccc2n1C(=O)c1ccco1`, the Effect was “inactive”. For `O=C(c1ccc(Cl)cc1)n1c2c(c3cc(S(=O)(=O)O)ccc31)CSCC2`, the Effect was “inactive”. `O=C(c1ccccc1)N1CCc2c(c3cc(S(=O)(=O)O)ccc3n2C(=O)c2ccco2)C1` was tested, and the Effect was “inactive”. With `O=C(c1ccco1)n1c2c(c3cc(S(=O)(=O)O)ccc31)CCCC2` the Effect was “inactive”. With `Cc1c(Cc2ccccc2)c2cc(S(=O)(=O)O)ccc2n1C(=O)c1ccc(Cl)cc1` the Effect was “inactive”. `Cc1c(CCC(=O)O)c2cc(S(=O)(=O)O)ccc2n1C(=O)c1ccco1` was tested, and the Effect was “inactive”. With `CN1CCc2c(c3cc(S(=O)(=O)O)ccc3n2C(=O)c2ccc(-c3ccccc3)cc2)C1` the Effect was “inactive”. In the case of `COC(=O)CCCc1c(C)n(C(=O)c2ccc(Cl)cc2)c2ccc(S(=O)(=O)O)cc12`, the Effect was “inactive”. For `Cc1c(Cc2ccccc2)c2cc(S(=O)(=O)O)ccc2n1C(=O)c1ccc(-c2ccccc2)cc1`, the Effect was “inactive”. For `COc1ccc2c(c1)c(CC(=O)O)c(C)n2C(=O)c1ccco1`, the Effect was “inactive”. `CCCCCCCCCCc1c(C)n(C(=O)c2ccco2)c2ccc(S(=O)(=O)O)cc12` was tested, and the Effect was “inactive”. For `COC(=O)CCc1c(C)n(C(=O)c2ccco2)c2ccc(S(=O)(=O)O)cc12`, the Effect was “inactive”. `Cc1c(CCCC(=O)O)c2cc(S(=O)(=O)O)ccc2n1C(=O)c1ccco1` was tested, and the Effect was “inactive”. `O=C(c1ccc(Cl)cc1)n1c2c(c3cc(S(=O)(=O)O)ccc31)CCCC2` was tested, and the Effect was “inactive”. With `O=C(c1ccco1)n1c2c(c3cc(S(=O)(=O)O)ccc31)CSCC2` the Effect was “inactive”. For `Cc1c(CCCC(=O)O)c2cc(S(=O)(=O)O)ccc2n1C(=O)c1ccc(-c2ccccc2)cc1`, the Effect was “inactive”.

These compounds were tested on T98G (assay: Effect of compound (10 uM) on doxorubicin-induced cytotoxicity towards T98G cell line expressing multidrug resistance associated protein 1 (MRP-1)). Details: Homo sapiens.
Assay type: functional, cell-based
`COc1ccc2c(c1)c(CCC(=O)O)c(C)n2C(=O)c1ccc(-c2ccccc2)cc1` was tested, and the Effect was “Active”.

What follows are compounds tested on T98G (assay: Effect of compound (10 uM) on doxorubicin-induced cytotoxicity towards T98G cell line expressing multidrug resistance associated protein 1 (MRP-1); Toxic). Details: Homo sapiens.
Assay type: functional, cell-based
In the case of `CCCCCCCCCCc1c(C)n(C(=O)c2ccc(-c3ccccc3)cc2)c2ccc(S(=O)(=O)O)cc12`, the Effect was “Toxic”. `CCOC(=O)CCc1c(C)n(C(=O)c2cccs2)c2ccc(OC)cc12` was tested, and the Effect was “Toxic”. In the case of `Cc1c(CCCC(=O)O)c2cc(S(=O)(=O)O)ccc2n1C(=O)c1ccc(Cl)cc1`, the Effect was “Toxic”. In the case of `CN1CCc2c(c3cc(S(=O)(=O)O)ccc3n2C(=O)c2ccc(Cl)cc2)C1`, the Effect was “Toxic”. In the case of `Cc1c(Cc2ccccc2)c2cc(S(=O)(=O)O)ccc2n1C(=O)c1ccco1`, the Effect was “Toxic”.
